How the values were obtained:
[1] = system: RNA expression in aortic arch; assay: Real-time RT-PCR of RNA expression in aortic arch of treated DKO mice; assay type: in vivo, mouse
Experimental: Homozygous LDL-receptor-knockout mice (LDLR^(−/−)), heterozygous ob/+, and C57BL6 mice were purchased from Jackson Laboratory, Bar Harbor, Me. LDLR^(−/−) mice were backcrossed into a C57BL6 background to the 10th generation. To obtain DKO mice with combined leptin deficiency (ob/ob) and LDL-receptor deficiency, LDLR^(−/−) and ob/+ mice were crossed. All offspring were genotyped by polymerase chain reaction (PCR) techniques. All mice were housed at 22° C. on a fixed 12/12-hour light/dark cycle. Experimental procedures in animals were performed in accordance with protocols approved by the Institutional Animal Care and Research Advisory Committee. All mice were fed standard chow containing 4% fat (Pavan Service). Food intake was ≈5.7 g/d. Mice (about 50 g) were treated with stevioside (N=14; 10 mg/kg), steviol (N=9; 5 mg/kg) or placebo (N=17) for 12 weeks between 12 and 24 weeks of age. Stevioside (Molecular weight: 804) was dissolved in water (1 mg/ml) and 500 μl of the solution was administered orally. Steviol (Molecular weight: 318) was dissolved in water containing 6% NaHCO3 (1 mg/ml) and 250 μl of the solution was administered orally.
The level of RNA expression in extracts of white visceral (intra-abdominal) adipose tissue and aortic arch was measured by real-time reverse transcription (RT)-PCR. Total RNA was extracted with the Trizol reagent (InVitrogen) and purified on an RNeasy kit column (Qiagen). First-strand cDNA was generated from total RNA by RT using random primers from Takara and Superscript III reverse transcriptase (InVitrogen). Quantitative real-time PCR was performed using SybrGreen master mix according to the supplier protocols (Applied Biosystems).). Oligonucleotides (InVitrogen) used as forward primer (F) and reverse primer (R) were: for mouse PPARalpha: F: 5′-[…]-3′; R: 5′-[…]-3′; for mouse PPARgamma: F: 5′-[…]-3′; R: 5′-GTCAGCGGGTGGGACTTTC-3′; for mouse FABP4: F: 5′-AACTGGGCGTGGAATTCG-3′; R: 5′-[…]-3′; for mouse iNOS: F: 5′-[…]-3′; R: 5′-[…]-3′; for mouse GLUT-4: F: 5′-[…]-3′; R: 5′-[…]-3′; for mouse IRS-1: F: 5′-[…]-3′; R: 5′-CGCCTCGGGAAGAGACAGT-3′; for mouse IRS-2: F: 5′-[…]-3′: R: 5′-[…]-3′; for mouse LXRalpha: F: 5′-[…]-3′; R: 5′-[…]-3′; for mouse SOD1: F: 5′-[…]-3′; R: 5′-[…]-3′; for mouse SOD2: F: 5′-TCGGTGGCGTTGAGATTGT; R: 5′-[…]-3′; for mouse SOD3: F: 5′-[…]-3′; R: 5′-GCTGCCGGAAGAGAACCAA-3′; and for mouse β-actin (housekeeping gene), F: 5′-[…]-3′; R: 5′-[…]-3′. The level of mRNA expression was calculated using the threshold cycle (Ct) value, i.e., the number of PCR cycles at which the fluorescent signal during the PCR reaches a fixed threshold. For each sample, the Ct both for the gene of interest and for the housekeeping gene β-actin were determined to calculate ΔCt,sample (Ct,target gene−Ct,housekeeping gene), thus normalizing the data and correcting for differences in amount and/or quality between the different RNA samples. The expression levels were related to an external calibrator consisting of intra-abdominal adipose tissue from C57BL6 control mice. Subsequently, ΔΔCt (ΔCt,sample−ΔCt,calibrator) was determined, and the relative expression levels were calculated from 2^−ΔΔCt according to the manufacturer's instructions (Applied Biosystems). RNA expression levels are thus indicated as arbitrary units ±SD

[2] = system: healthy subjects; assay: Stevioside 250 mg capsules thrice daily in healthy subjects; assay type: in vivo, human; conditions: 10 healthy subjects
Description: The present invention relates to the diterpenoic tetrahydropyran, steviol-19-glucuronide (a natural metabolite of stevioside) and other diterpenoic tetrahydropyran derivatives. […] However, oral administration of stevioside results in the surprising finding that it increases the expression and activity of PPARs, and that it exerts system biological effects to normalise lipid metabolism and to inhibit the formation atherosclerotic cardiovascular disease.

[3] = system: anaesthetised dogs; conditions: 200 mg stevioside powder/kg peroral; cited from earlier work
[4] = system: diabetic rats; conditions: blood of diabetic rats; cited from earlier work
[5] = system: 3T3-L1 adipocytes; assay: Triglyceride (Oil red O) accumulation during differentiation of 3T3-L1 adipocytes; assay type: cell-based, mouse
Experimental: 3T3-L1 mouse preadipocytes were purchased from the American Type Culture Collection (ATCC). They are cultivated in DHG medium (Dulbecco's modified Eagle's medium+High Glucose 4.5 g/l, GibcoBRL) supplemented with 10% FCS (foetal calf serum, GibcoBRL) and incubated a 37 C+5% CO2 incubator in a humidified atmosphere. For pre-adipocyte differentiation, 3T3-L1 cells were seeded at 50% confluence 3 days before the beginning of the differentiation programme. Confluent cell monolayers (day 0) are switched for 48 h to media containing the adipogenic cocktail: “DHG-L1” medium (DHG that contains 1.5 g/l NaHCO3) supplemented with 10% FCS, 5 μg/ml insulin, 300 μM dibutyryl-cyclicAMP (dbcAMP) and 1 μM dexamethasone. The cells were then refeeded every other day with DHG-L1 containing 10% FCS and 5 μg/ml insulin. At the end, 80-90% of cells were differentiated. […]
To characterize the state of (de)differentiation obtained in the presence of the molecules of interest, triglycerides present in the cells were stained with Oil red O (a dye of the neutral lipids). The absorbance of cell monolayers at 490 nm was measured in a spectrophotometer.

[6] = system: hypertensive rats; conditions: direct intravenous injection; cited from earlier work
[7] = system: mouse pancreatic islets, β-cell line INS-1; conditions: direct action on β-cells; cited from earlier work
[8] = aortic arch, stevioside 10 mg/kg orally, 12 weeks
[9] = time points 3 days after administration

In the case of C=C1C[C@@]23CC[C@H]4C(C)(CCC[C@@]4(C)C(=O)O[C@@H]4O[C@H](CO)C(O)[C@H](O)C4O)[C@@H]2CCC1(OC1O[C@H](CO)C(O)C(O)C1OC1O[C@H](CO)C(O)[C@H](O)C1O)C3 (stereo in doubt) [stevioside, Kaur-16-en-18-oic acid, 13-[(2-O-b-D-glucopyranosyl-b-D-glucopyranosyl)oxy]-, b-D-glucopyranosyl ester, (4a)-], the eNOS ([1]; aorta of stevioside-treated mice) is reported as “not affected”, the “expression of IRS2” value [1, 8] is reported as “increased expression” and the “expression of PPARalpha” value [1, 8] is reported as “did not increase”. For the same compound, the “expression of SOD1” value [1, 8] was “increased expression”, the “expression of SOD2” value [1, 8] was “increased expression” and the “expression of the inflammatory iNOS” value [1, 8] was “decreased the expression”. For the same compound, the 24-hour urinary volume [2] was “not significantly different”, the “mean blood glucose, control vs stevioside condition” value [2] was “no significant difference” and the “mean insulin, control vs stevioside condition” value [2] was “no significant difference”. For the same compound, the “urinary excretion of electrolytes” value [2] was “not significantly different”, the “blood biochemical parameters, control vs stevioside condition” value [2, 9] was “does not provide significant differences” and the “blood pressure, control vs stevioside condition” value [2, 9] was “does not provide significant differences”. For the same compound, the blood pressure [3] was “short-term blood pressure reduction”, the HDL-cholesterol [4] was “increases” and the “serum concentration of LDL cholesterol” value [4] was “lowers”. For the same compound, the “serum concentration of triglycerides” value [4] was “lowers”, the “triglyceride accumulation in adipocytes” value ([5]; 50-micromolar (lowest concentration), added during the 7-days differentiation process) was “did not significantly reduce” and the “lipid deposition (triglyceride accumulation) in adipocytes” value ([5]; 200-micromolar (4x higher concentration), added during differentiation, steviol dissolved with DMSO) was “inhibited”. For the same compound, the blood pressure [6] was “blood pressure reduction” and the insulin secretion [7] was “stimulation of insulin secretion”.
